Patent US5120830A, “Inhibitory peptides against α-2, β-1 mediated mg^++ dependent adhesion of platelets to collagen” (Washington University, priority 1990, dated 1992)
Where no end group is shown, it is not given here.

Biological target: T1, α2 β1 integrin (Homo sapiens, UniProt P05556+P17301)
T1 construct: Mg^++ -dependent adhesion of platelets, which use the α2 β1 integrin as a collagen specific receptor; endogenous in cells; host or cells: washed 51Cr-labelled platelets
Experiment: Mg++-dependent adhesion of 51Cr-labeled platelets to type I collagen substrates, peptide inhibition
Assay type: cell-based
Description: Platelet Adhesion-Platelets were washed and labeled with ^51 CrO4 as described in detail by Haverstick et al (22). Platelet adhesion to substrate composed of 0.5% BSA or 20 μg/ml of either type I collagen, laminin or fibronectin in polystryene dishes was determined as previously described in detail (7). Alternately, adhesion assays were carried out in 96 well microtiter dishes (Immulon II, Dynatech). In this case substrate coating- and adhesion assay volumes were adjusted to 100 μl and wash volumes were adjusted to 140 μl per well. Platelets were permitted to adhere for 60 min at a concentration of 1.3-- to 1.8×10^8 platelets/ml, then wash five times in adhesion assay buffer before being lysed with two […] aliquots of 2% SDS which were subsequently pooled and counted.
Peptide Inhibition--After labeling and washing, cells were resuspended at 2.6- to 3.6×10^5 /ml for platelets or 2×10^5 /ml for T47D cells. Aliquots were added to equal volumes of buffer containing appropriate concentrations of the peptides and divalent cations and preincubated for 15 min before being added to the adhesive substrates. Adhesion was quantitated as described above.

T1 sequence (P17301 30-1181): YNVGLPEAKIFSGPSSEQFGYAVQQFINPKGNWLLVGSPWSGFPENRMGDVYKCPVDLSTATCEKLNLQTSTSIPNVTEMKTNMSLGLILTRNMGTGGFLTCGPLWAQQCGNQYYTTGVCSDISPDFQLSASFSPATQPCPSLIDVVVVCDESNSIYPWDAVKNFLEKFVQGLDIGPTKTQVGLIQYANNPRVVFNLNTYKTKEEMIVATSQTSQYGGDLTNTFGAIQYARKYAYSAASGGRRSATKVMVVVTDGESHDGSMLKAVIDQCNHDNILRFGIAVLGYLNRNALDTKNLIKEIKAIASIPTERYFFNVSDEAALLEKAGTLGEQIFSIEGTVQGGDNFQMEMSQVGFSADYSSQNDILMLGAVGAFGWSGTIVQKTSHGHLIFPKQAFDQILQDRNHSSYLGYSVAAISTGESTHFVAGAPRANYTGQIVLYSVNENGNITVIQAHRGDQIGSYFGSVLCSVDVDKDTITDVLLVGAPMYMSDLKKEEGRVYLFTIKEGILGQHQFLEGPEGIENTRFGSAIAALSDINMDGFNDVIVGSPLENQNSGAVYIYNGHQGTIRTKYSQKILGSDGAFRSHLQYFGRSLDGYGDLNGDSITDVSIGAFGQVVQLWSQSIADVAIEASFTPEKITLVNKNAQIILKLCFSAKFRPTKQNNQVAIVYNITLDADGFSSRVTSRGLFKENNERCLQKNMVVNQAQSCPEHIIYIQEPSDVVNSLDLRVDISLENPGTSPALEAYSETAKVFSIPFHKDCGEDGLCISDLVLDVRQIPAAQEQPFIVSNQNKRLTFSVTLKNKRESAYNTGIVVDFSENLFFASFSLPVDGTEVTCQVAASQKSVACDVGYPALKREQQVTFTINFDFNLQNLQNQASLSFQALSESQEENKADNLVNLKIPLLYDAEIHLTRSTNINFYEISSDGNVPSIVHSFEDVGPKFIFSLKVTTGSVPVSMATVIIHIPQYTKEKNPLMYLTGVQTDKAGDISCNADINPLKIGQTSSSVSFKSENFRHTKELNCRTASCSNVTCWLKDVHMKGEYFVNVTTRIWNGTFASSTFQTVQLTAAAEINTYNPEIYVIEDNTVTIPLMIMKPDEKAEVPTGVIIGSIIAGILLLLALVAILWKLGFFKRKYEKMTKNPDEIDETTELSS
T1 sequence (P05556 21-798): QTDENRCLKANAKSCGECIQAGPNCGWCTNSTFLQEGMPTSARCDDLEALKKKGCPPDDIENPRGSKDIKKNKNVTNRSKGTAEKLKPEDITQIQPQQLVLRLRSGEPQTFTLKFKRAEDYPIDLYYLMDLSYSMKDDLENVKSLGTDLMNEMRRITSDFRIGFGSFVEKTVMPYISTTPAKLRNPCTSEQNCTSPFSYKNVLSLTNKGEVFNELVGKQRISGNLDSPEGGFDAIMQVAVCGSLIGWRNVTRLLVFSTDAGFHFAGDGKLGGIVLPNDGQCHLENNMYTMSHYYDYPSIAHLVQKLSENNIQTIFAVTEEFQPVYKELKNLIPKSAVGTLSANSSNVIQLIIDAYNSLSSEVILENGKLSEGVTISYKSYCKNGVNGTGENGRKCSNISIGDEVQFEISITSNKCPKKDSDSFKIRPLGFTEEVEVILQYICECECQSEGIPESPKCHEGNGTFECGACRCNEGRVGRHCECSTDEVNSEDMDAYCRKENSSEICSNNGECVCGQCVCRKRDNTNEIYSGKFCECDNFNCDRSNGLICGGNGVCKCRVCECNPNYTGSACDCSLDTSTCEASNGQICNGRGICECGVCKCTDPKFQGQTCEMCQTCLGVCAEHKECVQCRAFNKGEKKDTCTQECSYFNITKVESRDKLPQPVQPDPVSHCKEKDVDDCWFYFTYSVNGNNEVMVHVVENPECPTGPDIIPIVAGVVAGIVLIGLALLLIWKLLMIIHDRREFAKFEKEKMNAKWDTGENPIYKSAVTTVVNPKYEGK

KDGEA-NH2 [KDGEA]
Inhibitory activity in 1 mM Mg++ as percent of the activity observed in 6 mM Mg++ (1 mM Mg++ versus 6 mM Mg++): 80% | Inhibition of Mg++-dependent platelet adhesion to collagen (4 mM peptide, 2 mM Mg++): 80%

GPAGKDGEAGAQG-NH2 [peptide 430, GPAGKDGEAGAQG]
IC50 (read-out: Half-maximal inhibition of Mg++-dependent platelet adhesion to collagen): 2800 µM
